Assay results taken from US20240099989A1, “AGENT FOR PREVENTING OR IMPROVING PERIPHERAL NEUROPATHY” (KINKI UNIVERSITY, priority 2021, published 2024).
Like-named read-outs stand apart in the source and are kept apart here.

Tested on: Peripheral Neuropathy in a Mouse Caused by Bortezomib
Type: in vivo, Balb/c mice
Excerpt: (§1) Six to seven-week-old female Balb/c mice were used for the tests. All the mice were acclimated for seven days after arrival. Then, the mice were grouped into the following four groups: a control group, a group receiving bortezomib, a group receiving xylitol, and a group receiving bortezomib and xylitol (a group receiving bortezomib+xylitol). Each group consisted of five mice.
(§2) On Day 8 of acclimation, the mice in the group receiving bortezomib and the group receiving bortezomib+xylitol were intraperitoneally administered with bortezomib at a dose of 1 mg/kg. This day was designated as Day 0 of administration. Thereafter, these mice were intraperitoneally administered with bortezomib at a daily dose of 1 mg/kg on Day 7 and Day 14.
The mice in the group receiving xylitol and the group receiving bortezomib+xylitol were orally administered with xylitol at a dose of 5 mg/kg daily from Day 0.
(§3) A cold plate test was performed to examine the effect of xylitol on paresthesia that is caused by a low temperature stimulus. The mice in the four groups described in (10) of the present example (Example 1) were placed on a cold plate set at 10° C., and withdrawal response time (latent time) was measured. It is presumed that a shorter latent time reflects a greater degree of shunning the low temperature stimulus by the cold plate.
as §1, with “tests as with Example 1.” for “tests.”
On Day 8 of acclimation, the mice in the group receiving bortezomib and the group receiving bortezomib+xylitol were intraperitoneally administered with bortezomib at a dose of 1 mg/kg. This day was designated as the first day of the administration (Day 0). Thereafter, these mice were intraperitoneally administered with bortezomib at the same dose on Day 7 and Day 14 for a total of 3 doses.
The mice in the group receiving 100 mg/kg xylitol were orally administered with xylitol at a dose of 100 mg/kg daily from Day 0. The mice in the group receiving bortezomib+100 mg/kg xylitol were orally administered with xylitol at a dose of 100 mg/kg daily from Day 6 of administration.
as §3, with “A” for “A cold plate”, “performed on the mice in the four groups described in (12) of the present example (Example 2)” for “performed”, “respective” for “the four”, “groups” for “groups described in (10) of the present example (Example 1)”
as §1, with “tests as with Example 1.” for “tests.”, “D-threitol,” for “xylitol,”, “D-threitol” for “xylitol”, “bortezomib+D-threitol).” for “bortezomib+xylitol).”
as §2, with “bortezomib+D-threitol” for “bortezomib+xylitol”
The mice in the group receiving D-threitol and the group receiving bortezomib+D-threitol were orally administered with D-threitol at a dose of 5 mg/kg daily from Day 0.
A cold plate test was performed to examine the effect of D-threitol on paresthesia that is caused by a low temperature stimulus. […]

[1] = 1 mg/kg bortezomib + 5 mg/kg test substance orally daily from Day 0 (prevention)
[2] = 1 mg/kg bortezomib + 100 mg/kg orally daily from Day 6, on Day 12, vs group receiving 1 mg/kg bortezomib

Compound	withdrawal response time (latent time) [1]	withdrawal response time (latent time) [2]
OC[C@@H](O)[C@H](O)CO [D-threitol]	approximately similar to that of the control group	significantly longer withdrawal response time
OC[C@H](O)[C@H](O)[C@H](O)[C@@H](O)CO [L-talitol]	approximately similar to that of the control group	significantly longer withdrawal response time
OC[C@@H](O)[C@H](O)[C@@H](O)CO [xylitol]	approximately similar to that of the control group	significantly longer withdrawal response time
